Experimental data reported in PubChem BioAssay (NCI).
Several values for one entry are separate records, joined by “and”; a condition that tells them apart may be missing. Equal values may be shown once.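 Results reflect a 48-hour exposure of cells in 96-well plates to compound at five concentrations. Here, GI50 denotes the concentration required for 50% inhibition of growth. Definition used: TGI = concentration required for complete inhibition of growth.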

Experiments:
Assay in all cases: DTP human tumour cell line panel, 48 h
OVCAR-3 ovarian = test system: OVCAR-3 ovarian
EKVX NSCLC = test system: EKVX NSCLC
786-0 renal = test system: 786-0 renal
M14 melanoma = test system: M14 melanoma
A498 renal = test system: A498 renal
SF-295 CNS = test system: SF-295 CNS
LOX IMVI melanoma = test system: LOX IMVI melanoma
DU-145 prostate = test system: DU-145 prostate
COLO 205 colon = test system: COLO 205 colon
SR leukemia = test system: SR leukemia

Structure (SMILES)	TGI (OVCAR-3 ovarian)	TGI (EKVX NSCLC)	TGI (786-0 renal)	TGI (M14 melanoma)	TGI (A498 renal)	TGI (SF-295 CNS)	TGI (LOX IMVI melanoma)	TGI (DU-145 prostate)	TGI (COLO 205 colon)	TGI (SR leukemia)	GI50 (OVCAR-3 ovarian)	GI50 (EKVX NSCLC) [µM]	GI50 (786-0 renal) [µM]	GI50 (M14 melanoma) [µM]	GI50 (A498 renal) [µM]	GI50 (SF-295 CNS) [µM]	GI50 (LOX IMVI melanoma) [µM]	GI50 (DU-145 prostate) [µM]	GI50 (COLO 205 colon) [µM]	GI50 (SR leukemia) [µM]
CC1(C)CCC(C)(C)c2c1ccc(O)c2Cc1c(O)ccc2c1C(C)(C)CCC2(C)C	4.32 µM	9.16 µM	3.61 µM	3.75 µM	3.43 µM	4.99 µM	3.39 µM	5.45 µM	4.44 µM	6.8 µM	–	–	–	–	–	–	–	–	–	–
COc1cc(OC)c(NC(=O)c2cc3ccccc3cc2O)cc1Cl	4.74 µM	28 µM	> 100 µM	13.1 µM	5.57 µM	9.16 µM	9.37 µM	38.2 µM	14.5 µM	91.5 µM	2.02 µM	2.22	4.51	3.03	2.15	2.8	2.69	3.72	3.91	5.25
CN(C)CCOC(c1ccccc1)c1ccccc1	51.1 µM and > 100 µM	> 100 µM	49.8 µM and > 100 µM	23.9 µM and > 100 µM	58.4 µM	–	> 100 µM	55.8 µM and > 100 µM	28.3 µM and > 100 µM	> 100 µM	36 µM	–	35.1	15.3	40.9	–	–	40.3	14	–
C=C(CN1CCN(c2cccc(C(F)(F)F)n2)CC1)c1ccc(C(=S)Nc2ccccc2N)cc1	> 100 µM	> 100 µM	> 100 µM	41.3 µM	> 100 µM	> 100 µM	17.6 µM	> 100 µM	11.8 µM	6.49 µM	4.34 µM	4.47	4.29	3.81	2.57	3.48	3.72	6.99	3.19	2.44
COc1cnc2c(c1)C(=O)c1c-2n(CCCNC(C)C)c(=O)c2cc(F)ccc12	1.03 µM	1.73 µM	0.482 µM	1.3 µM	0.811 µM	0.549 µM	0.249 µM	1.04 µM	0.643 µM	0.839 µM	0.19 µM	0.299	0.116	0.23	0.199	0.0943	0.114	0.21	0.0905	0.0758
CNC(=O)Oc1cc(C)c(/C=C/c2cncc(C(=O)NC)c2)c(C)c1	> 25 µM	> 25 µM	> 25 µM	> 25 µM	> 25 µM	> 25 µM	> 25 µM	> 25 µM	> 25 µM	> 25 µM	> 25 µM	> 25	> 25	16.8	> 25	> 25	15.9	> 25	> 25	> 20.4
CCCCCCCCCCCCOC1C(C(CC(=O)N2CCN(c3cccc(C(F)(F)F)c3)CC2)NS(=O)(=O)c2cc(Cl)cc(Cl)c2)OC2OC(C)(C)OC21 (configuration not stated)	> 100 µM	> 100 µM	> 100 µM	> 100 µM	> 100 µM	> 100 µM	> 100 µM	> 100 µM	> 100 µM	> 100 µM	> 100 µM	> 100	> 100	> 100	> 100	> 100	> 100	> 100	> 100	> 100
C/C(=C(\c1ccc(OCCN2CCCCCC2)cc1)c1ccc(OC(=O)Cc2ccccc2)cc1)c1ccc(Cl)cc1	5.22 µM	7.8 µM	3.85 µM	4.15 µM	16.7 µM	4.97 µM	4.77 µM	6.32 µM	5.56 µM	6.87 µM	2.75 µM	2.6	1.78	1.87	6.35	2.56	2.51	3.15	2.8	0.556
O=C1OC(c2ccccc2)(c2cc(Br)c(O)c(Br)c2)c2ccccc21 (configuration not stated)	36.4 µM	> 100 µM	38.7 µM	36.8 µM	52 µM	59.1 µM	33 µM	> 100 µM	39.4 µM	> 100 µM	18.1 µM	31.7	19.3	18.6	21.1	17.5	16.3	27.4	18.2	26
O=c1c2c3c(sc2nc(N/N=C/c2ccc(Br)cc2)n1Cc1ccccc1)CCCC3	> 100 µM	> 100 µM	> 100 µM	> 100 µM	> 100 µM	> 100 µM	> 100 µM	> 100 µM	> 100 µM	> 100 µM	32.5 µM	7.76	3.07	9.15	> 100	5.75	19.3	90.9	5.88	4.98
C[C@H](CCCNCCCNCCCN)[C@H]1CC[C@H]2[C@@H]3[C@H](OCCCN)C[C@H]4C[C@H](OCCCN)CC[C@]4(C)[C@H]3C[C@H](OCCCN)[C@]12C	> 62.5 µM	> 43.9 µM	5.49 µM	3.88 µM	> 100 µM	23.9 µM	9.41 µM	21.3 µM	15.3 µM	1.66 µM	14.6 µM	5.43	0.824	0.874	> 100	1.33	0.888	3.34	1.1	0.326
O=C(NCc1ccco1)c1ccc(NC2=C(Cl)C(=O)N(Cc3ccccc3)C2=O)cc1	31.3 µM	72.5 µM	28.2 µM	28.4 µM	62.5 µM	55.1 µM	> 100 µM	29.2 µM	80.1 µM	7.14 µM	16.7 µM	31.2	12.6	15.1	29.6	20.8	> 100	15.8	28.4	2.21
CC[C@@]1(O)C(=O)OCc2c1cc1n(c2=O)Cc2c-1nc1cc3c(cc1c2C)OCO3	> 100 µM	0.818 µM	8.15 µM	1.01 µM	0.0272 µM and 0.0285 µM	–	0.0319 µM and 0.0306 µM	> 100 µM	> 100 µM	0.000207 µM	0.0758 µM and 0.0117 µM	–	< 0.0001	< 0.0001	0.000257	< 0.0001	< 0.0001	< 0.0001	0.102	< 0.0001
O=C(NCc1ccncc1)C12CC3CC(C1)CC(c1ccc(Cl)cc1)(C3)C2	27.3 µM	26.3 µM	25.8 µM	26.9 µM	20.8 µM	27.3 µM	30.1 µM	28.6 µM	27.1 µM	35.7 µM	13.2 µM	11.6	12.6	12.7	7.85	12.7	15	14.8	12.7	7.98
CC/C(=C(/c1ccc(O)cc1)c1ccc(OCCN2CCCCC2)cc1)c1ccc(OC)cc1	4.23 µM	18.4 µM	2.74 µM	3.38 µM	17.6 µM	3.62 µM	3.27 µM	18.1 µM	3.12 µM	0.649 µM	1.6 µM	4.05	1.28	1.73	4.29	1.79	1.63	4.52	1.49	0.215
N#CC1=C(N)NC(=S)NC12Nc1ccccc1N2	> 100 µM	> 100 µM	> 100 µM	> 100 µM	43.5 µM	> 100 µM	> 100 µM	> 100 µM	> 100 µM	> 100 µM	22 µM	65.6	51.7	40	20	33.1	80.1	65.3	32.6	6.18
CSc1ncnc2c1ncn2C1OC(CO)C(O)OC1O (configuration not stated)	16.7 µM	> 66.3 µM	43.5 µM	39.1 µM	> 53.1 µM	> 71.3 µM	15.4 µM	39.4 µM	11.8 µM	> 100 µM	–	–	–	–	–	–	–	–	–	–
CCOC(=O)C(C)(C)C(O)C(C)C (configuration not stated)	> 100 µM	> 100 µM	> 100 µM	> 100 µM	> 100 µM	> 100 µM	> 100 µM	> 100 µM	> 100 µM	> 100 µM	–	–	–	–	–	–	–	–	–	–
Cc1ccc(-c2nc(N3CCCNCC3)c3oc(-c4ccccc4)nc3n2)cc1	3.38 µM	3.33 µM	2.81 µM	3.29 µM	3.16 µM	3.43 µM	3.2 µM	3.4 µM	3.5 µM	0.624 µM	1.83 µM	1.81	1.43	1.76	1.66	1.93	1.71	1.89	1.89	0.239
Nc1c(C(=O)c2ccc(CCCN3CCOCC3)cc2)cnn1-c1ccc(F)cc1	> 25 µM	–	> 25 µM	> 25 µM	> 25 µM	> 25 µM	> 25 µM	> 25 µM	> 25 µM	> 25 µM	24.3 µM	–	> 25	> 25	> 14.5	> 25	> 25	> 25	> 25	> 20.4
O=C(CCC(C(=O)c1ccccc1)c1ccccc1)c1ccccc1 (configuration not stated)	> 100 µM	–	> 100 µM	> 100 µM	58.1 µM	> 100 µM	> 100 µM	> 100 µM	> 100 µM	> 100 µM	5.78 µM	–	49.4	6.82	1.44	6.83	20.7	30.1	8.8	4.46
Cc1ncsc1-c1ccc(CNC(=O)[C@@H]2C[C@@H](O)CN2C(=O)[C@@H](NC(=O)C2(C#N)CC2)C(C)(C)C)cc1	> 100 µM	> 100 µM	> 100 µM	–	> 100 µM	> 100 µM	> 100 µM	> 100 µM	> 100 µM	> 100 µM	> 100 µM	35.2	> 100	–	24	> 100	> 100	> 100	> 100	55.4
CCN(CC)CCCC(C)N=c1cc(Nc2cc(=NC(C)CCCN(CC)CC)c3cc(OC)ccc3o2)oc2ccc(OC)cc12 (configuration not stated)	2.92 µM	–	8.01 µM	1.79 µM	7.83 µM	3.14 µM	2.29 µM	3.19 µM	1.36 µM	3.02 µM	1.29 µM	–	2.26	0.967	1.15	1.1	1.02	1.17	0.632	0.943
Cc1cc2c(c3oc(C4(C)OC4C4OC4C)cc(=O)c13)C(=O)c1c(O)c(C3CC(C)(N(C)C)C(O)C(C)O3)cc(C3CC(N(C)C)C(O)C(C)O3)c1C2=O (configuration not stated)	–	0.00078 µM and 0.000929 µM	–	0.000196 µM and 0.000148 µM	0.00114 µM	0.000154 µM and 0.0012 µM	0.00189 µM and 0.000224 µM	0.000138 µM and 0.000556 µM	–	0.00495 µM and 0.0102 µM	–	–	0.000463	0.000101	0.00057	–	0.000175	–	–	–
COc1ccc(-c2nc(N3CCN(C(=O)C4CCCCC4)CC3)c3c4c(sc3n2)CCCC4)cc1	> 100 µM	–	> 100 µM	> 100 µM	81.3 µM	85.1 µM	> 100 µM	> 100 µM	> 100 µM	> 100 µM	> 100 µM	–	38.2	> 100	14.2	26.2	> 100	> 100	> 100	> 100
COc1cc(-c2nn(-c3cccc(NC(=O)c4ccc(N5CCOCC5)c(C(F)(F)F)c4)c3)cc2-c2ccncc2)ccc1Cl	1.19 µM	–	2.81 µM	13.8 µM	0.765 µM	1.15 µM	6.2 µM	> 39.3 µM	1.69 µM	> 100 µM	0.147 µM	–	0.561	0.346	0.103	0.15	0.371	0.379	0.446	0.0369
